#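 Each compound was tested at five concentrations against cells in 96-well plates for 48 hours. Here, GI50 denotes the concentration required for 50% inhibition of growth.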 The source made the active and inactive calls. Rule as the data show it: active = GI50 up to about 1.1 µM and inactive = higher.
# Columns and labels:
# Assay in all cases: inhibition of tumour cell growth, NCI panel, 48 h
# 786-0 = test system: 786-0
# A498 = test system: A498
# A549 = test system: A549
# ACHN = test system: ACHN
# BT-549 = test system: BT-549
# CAKI-1 = test system: CAKI-1
# COLO 205 = test system: COLO 205
# DU-145 = test system: DU-145
# EKVX = test system: EKVX
# HCC 2998 = test system: HCC 2998
# HCT-116 = test system: HCT-116
# HCT-15 = test system: HCT-15
# HL-60 = test system: HL-60
# HOP-62 = test system: HOP-62
# HOP-92 = test system: HOP-92
# HT-29 = test system: HT-29
# Hs-578T = test system: Hs-578T
# IGROV-1 = test system: IGROV-1
# K562 = test system: K562
# KM12 = test system: KM12
# LOX IMVI = test system: LOX IMVI
# M14 = test system: M14
# MCF7 = test system: MCF7
# MDA-MB-231 = test system: MDA-MB-231
# MDA-MB-435 = test system: MDA-MB-435
# MDA-N = test system: MDA-N
# MOLT-4 = test system: MOLT-4
# Malme-3M = test system: Malme-3M
# NCI-H226 = test system: NCI-H226
# NCI-H23 = test system: NCI-H23
# NCI-H460 = test system: NCI-H460
# NCI-H522 = test system: NCI-H522
# NCI/ADR-RES = test system: NCI/ADR-RES
# OVCAR-3 = test system: OVCAR-3
# OVCAR-4 = test system: OVCAR-4
# OVCAR-5 = test system: OVCAR-5
# OVCAR-8 = test system: OVCAR-8
# PC-3 = test system: PC-3
# RPMI-8226 = test system: RPMI-8226
# RXF 393 = test system: RXF 393
# SF-268 = test system: SF-268
# SF-295 = test system: SF-295
# SF-539 = test system: SF-539
# SK-MEL-28 = test system: SK-MEL-28
# SK-MEL-2 = test system: SK-MEL-2
# SK-MEL-5 = test system: SK-MEL-5
# SK-OV-3 = test system: SK-OV-3
# SN12C = test system: SN12C
# SNB-19 = test system: SNB-19
# SNB-75 = test system: SNB-75
# SR = test system: SR
# SW-620 = test system: SW-620
# TK-10 = test system: TK-10
# U-251 = test system: U-251
# UACC-257 = test system: UACC-257
# UACC-62 = test system: UACC-62
# UO-31 = test system: UO-31
smiles,measurement,setting,value
N#C/C(=C\Nc1ccccn1)C(=O)c1ccco1,GI50,786-0,> 100 µM (inactive)
same,GI50,A498,> 100 µM (inactive)
same,GI50,A549,> 100 µM (inactive)
same,GI50,ACHN,> 100 µM (inactive)
same,GI50,BT-549,> 100 µM (inactive)
same,GI50,CAKI-1,> 100 µM (inactive)
same,GI50,COLO 205,> 100 µM (inactive)
same,GI50,DU-145,> 100 µM (inactive)
same,GI50,EKVX,> 100 µM (inactive)
same,GI50,HCC 2998,> 100 µM (inactive)
same,GI50,HCT-116,> 100 µM (inactive)
same,GI50,HCT-15,> 100 µM
same,GI50,HL-60,> 100 µM (inactive)
same,GI50,HOP-62,> 100 µM (inactive)
same,GI50,HOP-92,> 100 µM (inactive)
same,GI50,HT-29,> 100 µM (inactive)
same,GI50,Hs-578T,> 100 µM (inactive)
same,GI50,IGROV-1,> 100 µM (inactive)
same,GI50,K562,> 100 µM (inactive)
same,GI50,KM12,> 100 µM (inactive)
same,GI50,LOX IMVI,> 100 µM (inactive)
same,GI50,M14,> 100 µM (inactive)
same,GI50,MCF7,> 100 µM (inactive)
same,GI50,MDA-MB-231,> 100 µM (inactive)
same,GI50,MDA-MB-435,> 100 µM (inactive)
same,GI50,MDA-N,> 100 µM (inactive)
same,GI50,MOLT-4,39.6 µM (inactive)
same,GI50,Malme-3M,> 100 µM (inactive)
same,GI50,NCI-H226,> 100 µM (inactive)
same,GI50,NCI-H23,> 100 µM (inactive)
same,GI50,NCI-H460,> 100 µM (inactive)
same,GI50,NCI-H522,> 100 µM (inactive)
same,GI50,NCI/ADR-RES,> 100 µM (inactive)
same,GI50,OVCAR-3,> 100 µM (inactive)
same,GI50,OVCAR-4,> 100 µM (inactive)
same,GI50,OVCAR-5,> 100 µM (inactive)
same,GI50,OVCAR-8,> 100 µM (inactive)
same,GI50,PC-3,> 100 µM (inactive)
same,GI50,RPMI-8226,> 100 µM (inactive)
same,GI50,RXF 393,> 100 µM (inactive)
same,GI50,SF-268,> 100 µM (inactive)
same,GI50,SF-295,> 100 µM (inactive)
same,GI50,SF-539,> 100 µM (inactive)
same,GI50,SK-MEL-28,> 100 µM (inactive)
same,GI50,SK-MEL-2,> 100 µM (inactive)
same,GI50,SK-MEL-5,> 100 µM (inactive)
same,GI50,SK-OV-3,> 100 µM (inactive)
same,GI50,SN12C,> 100 µM (inactive)
same,GI50,SNB-19,> 100 µM (inactive)
same,GI50,SNB-75,> 100 µM (inactive)
same,GI50,SR,> 100 µM (inactive)
same,GI50,SW-620,> 100 µM (inactive)
same,GI50,TK-10,> 100 µM (inactive)
same,GI50,U-251,> 100 µM (inactive)
same,GI50,UACC-257,> 100 µM (inactive)
same,GI50,UACC-62,> 100 µM (inactive)
same,GI50,UO-31,> 100 µM (inactive)

# Source: ChEMBL document CHEMBL1201862, “PubChem BioAssay data set” (2004)
